From BindingDB's records for doi:10.1016/j.ejmech.2014.01.004 (Future University, 2014)

Target: T1, Dihydrofolate reductase (Bos taurus, UniProt P00376)
T1 sequence (P00376 whole entry): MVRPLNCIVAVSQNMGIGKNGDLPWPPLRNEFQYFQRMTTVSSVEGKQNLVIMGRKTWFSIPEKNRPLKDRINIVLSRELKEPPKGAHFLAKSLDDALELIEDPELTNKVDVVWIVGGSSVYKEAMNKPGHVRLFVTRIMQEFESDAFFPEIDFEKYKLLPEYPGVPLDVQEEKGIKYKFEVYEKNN
Test: Inhibition of bovine liver DHFR measured for every 1 min of 10 mins

## Clc1cc2c(cc1Cl)N=C(c1ccc(Br)cc1)C1CCCC(=Cc3ccc(Br)cc3)C1=N2 (configuration not stated)
  IC50: 100 nM

## COc1ccc(C=C2CCCC3C2=Nc2cc(C)c(C)cc2N=C3c2ccc(OC)cc2)cc1 (configuration not stated)
  IC50: 100 nM
